This passage reports inhibition results from publication PMC6934184, “Selective DNA-PKcs inhibition extends the therapeutic index of localized radiotherapy and chemotherapy” (The Journal of Clinical Investigation, 2019).

The target in the assay is T1, LTK (TYK1) (Homo sapiens, UniProt P29376).
T1 construct: purchased Thermo Fisher Scientific (Life Technologies) SelectScreen
Put plainly: SelectScreen Z'LYTE. Format: biochemical. Put shortly:
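SelectScreen broad panel; activity (Z'LYTE, Adapta) plus binding formats. ATP: Km app for CSF1R Z'LYTE; 10 for CAMK1 Adapta. Readout = % per kinase.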

T1 sequence (P29376 17-864): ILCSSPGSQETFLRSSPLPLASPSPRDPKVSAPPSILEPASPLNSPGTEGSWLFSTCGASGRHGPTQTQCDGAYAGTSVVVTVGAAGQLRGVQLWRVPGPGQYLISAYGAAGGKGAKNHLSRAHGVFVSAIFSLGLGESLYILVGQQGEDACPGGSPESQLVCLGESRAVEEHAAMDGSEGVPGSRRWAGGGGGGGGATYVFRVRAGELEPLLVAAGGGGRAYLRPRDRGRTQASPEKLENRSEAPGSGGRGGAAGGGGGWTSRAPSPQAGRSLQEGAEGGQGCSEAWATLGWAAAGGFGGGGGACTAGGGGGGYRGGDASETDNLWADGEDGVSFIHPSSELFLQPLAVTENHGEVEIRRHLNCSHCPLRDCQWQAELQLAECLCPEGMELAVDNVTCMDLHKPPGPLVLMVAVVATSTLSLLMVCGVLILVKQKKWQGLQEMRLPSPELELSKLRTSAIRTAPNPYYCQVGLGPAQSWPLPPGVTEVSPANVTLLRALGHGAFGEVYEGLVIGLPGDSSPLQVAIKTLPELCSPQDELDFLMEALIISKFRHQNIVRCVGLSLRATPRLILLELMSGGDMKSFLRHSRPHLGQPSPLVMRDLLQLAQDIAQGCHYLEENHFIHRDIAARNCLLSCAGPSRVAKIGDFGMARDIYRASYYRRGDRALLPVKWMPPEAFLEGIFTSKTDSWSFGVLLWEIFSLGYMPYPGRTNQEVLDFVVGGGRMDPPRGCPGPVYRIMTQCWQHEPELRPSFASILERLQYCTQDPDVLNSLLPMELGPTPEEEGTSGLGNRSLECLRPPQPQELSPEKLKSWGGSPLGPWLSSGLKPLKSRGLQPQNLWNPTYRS

As to `CN(C(=O)CN1CCOCC1)c1ccc2sc3c(-c4cccc5c(=O)cc(N6CC7CCC(C6)O7)oc45)cccc3c2c1` [NU5455], the inhibition at 1 µM is -13.1%.
